≈ marks a conversion by molar mass, not a printed value. Read-outs that look alike come from different tables or passages of the source. Where only a bound is given, the exact number is not on record here.

The source of these data is patent publication US10414725B2, “Pyrrolomycins and methods of using the same” (priority 2015, dated 2019).

For data set [1], the system named is Bacillus anthracis V770-NP1-R. The data set can be described thus: microbe, parasite or virus in culture. The note with it: V770NP1R, read-out: MIC BA. In kind it is cell-based.
Data set [2] concerns Staphyloccocus aureus USA300. Kind of data set: Minimum inhibitory concentration, broth microdilution, Staphylococcus aureus. It is filed as cell-based. To be noted: for MIC: Staphylococcus aureus.
In data set [3] the test system is Staphylococcus aureus. The data set can be described thus: Minimum bactericidal concentration / bactericidal activity against SA. It is filed as cell-based. To be noted: for MBC (100% killing of SA): 24 hours, n=4.
Data set [4] concerns S. aureus biofilms. Kind of data set: Anti-staphylococcal biofilm activity (static biofilms, cfu). In kind it is cell-based, Staphylococcus aureus.
Data set [5] has as its system human Hela cells. The data set can be described thus: Mammalian cytotoxicity assay (CellTiter 96 AQueous One). In kind it is cell-based. The note with it: 24 h, highest concentration tested 100 μM, read-out: IC50 human Hela cell proliferation.
The subject of data set [6] is Bacillus anthracis. Kind of data set: microbe, parasite or virus in culture. The note with it: 1 h, read-out: reduction of BA culture viability.
Data set [7] can be described thus: Pharmacokinetics of pyrrolomycin 4 in mice (LC-MS/MS of plasma).
Where [8] appears, read: Staphyloccocus aureus USA300, n ≥ 3, read-out: MIC SA.

For orientation: melting point means the temperature, or range, at which the solid turns liquid. `COc1c(F)cc(F)cc1C(=O)c1c(Br)c(Br)c(Br)n1C` [Compound 11] returned a melting point of 107.4 to 108.1 °C. In data set [1], the MIC is above 4 µg/mL. Also, the MIC in data set [2] (setting [8]) is above 4 µg/mL.

`Cn1c(Br)c(Br)c(Br)c1C(=O)c1cc(F)cc(F)c1O` [Compound 12] showed a melting point of 156.2 to 157.2 °C. For the same molecule, the MIC in data set [1] is above 4 µg/mL. Further, the MIC in data set [2] (setting [8]) was above 4 µg/mL.

Regarding `CN[C@H](CC(C)C)C(=O)N[C@H]1C(=O)N[C@@H](CC(N)=O)C(=O)N[C@H]2C(=O)N[C@H]3C(=O)N[C@H](C(=O)N[C@H](C(=O)O)c4cc(O)cc(O)c4-c4cc3ccc4O)[C@H](O)c3ccc(c(Cl)c3)Oc3cc2cc(c3O[C@@H]2O[C@H](CO)[C@@H](O)[C@H](O)[C@H]2O[C@H]2C[C@](C)(N)[C@H](O)[C@H](C)O2)Oc2ccc(cc2Cl)[C@H]1O` [vancomycin, reference compound], the MIC in data set [2] (setting [8]) was found to be 2 µg/mL (≈ 1.38 µM). For the same molecule, the “MBC (100% killing of SA)” value in data set [3] is 8 µg/mL. In addition, the biofilm killing in data set [4] (24 hours, 32 μg/mL, n=4) was determined as 11%; in data set [4] (120 hours, 32 μg/mL) it was 39%.

The term AUC denotes the area under the concentration-time curve, a measure of exposure. A higher AUC goes with more exposure. Regarding `O=C(c1cc(Br)c(F)[nH]1)c1cc(Cl)cc(Cl)c1O` [Compound 4], the MIC in data set [1] is 0.047 µg/mL (≈ 0.133 µM); in data set [2] (USA300, read-out: MIC SA), 0.073 µg/mL (≈ 0.207 µM). Further, in data set [5], the IC50 is above 35.3 µg/mL. In addition, the “killing of SA” value in data set [3] (4 μg/mL, no growth of colonies after incubation for 48 hours) amounted to 100%. Further, the “MBC (100% killing of SA)” value in data set [3] was 4 µg/mL. In addition, the biofilm killing is recorded as 84% in data set [4] (24 hours, 8.0 μg/mL, n=4); 97% in data set [4] (48 hours, 8.0 μg/mL); above 99.9% in data set [4] (120 hours, 8.0 μg/mL). Also, the inhibition at […] in data set [6] is 60%. In data set [7] (10 mg/kg oral vs 1.0 mg/kg IV), this molecule returned an oral bioavailability of 35%. Also, the elimination half-life turned out to be 6.04 h in data set [7] (IV) and 6.75 h in data set [7] (oral). For the same molecule, in data set [7] (IV and oral, detection limit 0.8 ng/mL), the “time parent compound detectable in plasma” value is recorded as “up to 72 hours”. Also, the area under the curve (AUC) is 3800 ng·h/mL in data set [7] (IV dose 1 mg/kg) and 13200 ng·h/mL in data set [7] (oral dose 10 mg/kg).

`COc1c(F)cc(F)cc1C(=O)c1[nH]c(Br)c(Br)c1Br` [Compound 10] registered a melting point of 178.9 to 179.7 °C. Further, in data set [1], the MIC was found to be 1.5 µg/mL (≈ 3.17 µM). Moreover, the MIC in data set [2] (setting [8]) was 3 µg/mL (≈ 6.33 µM).

Regarding `O=C(c1cc(Br)c(Br)[nH]1)c1cc(Cl)cc(Cl)c1O` [Compound 17], the MIC came to 0.188 µg/mL (≈ 0.454 µM) in data set [1] and 0.073 µg/mL (≈ 0.176 µM) in data set [2] (USA300, read-out: MIC SA). The IC50 in data set [5] is above 41.4 µg/mL.

In turn, `O=C(c1ccc[nH]1)c1cc(F)cc(F)c1O` [Compound 9] came in with a melting point of 161.7 to 162.5 °C. The MIC in data set [1] is above 4 µg/mL. In addition, in data set [2] (setting [8]), the MIC was above 4 µg/mL.

In turn, `O=C(c1cc(F)cc(F)c1O)c1[nH]c(Br)c(Br)c1Br` [Compound 3] came in with a melting point of 151.8 to 152.7 °C. The MIC in data set [1] is 0.031 µg/mL (≈ 0.0674 µM). For the same molecule, in data set [2] (setting [8]), the MIC is 0.17 µg/mL (≈ 0.37 µM). The IC50 in data set [5] is above 46 µg/mL.

The molecule `COc1c(F)cc(F)cc1C(=O)c1ccc[nH]1` [Compound 8] gave a melting point of 85.7 to 87.1 °C. For the same molecule, the MIC in data set [1] was above 4 µg/mL. In data set [2] (setting [8]), the MIC was above 4 µg/mL.

As for `O=C(c1ccc[nH]1)c1cc(Cl)cc(Cl)c1O` [Compound 15], the MIC in data set [1] is above 4 µg/mL; in data set [2] (USA300, read-out: MIC SA), above 4 µg/mL.

`O=C(c1cc(Cl)cc(Cl)c1O)c1[nH]c(F)c(Br)c1Br` [Compound 18]: the melting point lay in the range of 171.9 to 172.7 °C. In addition, in data set [1], the MIC was 0.125 µg/mL (≈ 0.289 µM). For the same molecule, the MIC in data set [2] (setting [8]) came out at 0.19 µg/mL (≈ 0.44 µM). Further, the IC50 in data set [5] is above 43.2 µg/mL. Also, in data set [6], the inhibition at […] is 92%.

`O=C(c1cc(Br)c[nH]1)c1cc(Cl)cc(Cl)c1O` [Compound 19]: in data set [2] (Staphyloccocus aureus USA300, n ≥ 3), the “MIC SA” value is above 4.0 µg/mL. Moreover, the MIC in data set [2] (USA300, read-out: MIC SA) was above 4 µg/mL.
